For three compounds, residual activity results are on record in ChEMBL document CHEMBL1152560, “Substituted 2-arylbenzothiazoles as kinase inhibitors: hit-to-lead optimization” (Bioorg Med Chem, 2009).

The target in assay [1] is NT-3 growth factor receptor (Homo sapiens) (UniProt Q16288). As to the kind of experiment: Residual activity of TRK-C at 10 uM by microplate scintillation counting.
In assay [2] the target is Mitogen-activated protein kinase 11 (Homo sapiens) (UniProt Q15759). As to the kind of experiment: Residual activity of p38beta at 0.1 uM by microplate scintillation counting.
In assay [3] the target is Serine/threonine-protein kinase N2 (Homo sapiens) (UniProt Q16513). As to the kind of experiment: Residual activity of PRK2 at 1 uM by microplate scintillation counting.
In assay [4] the target is T1, Ephrin type-A receptor 3 (Homo sapiens) (UniProt P29320).
T1 sequence (whole entry): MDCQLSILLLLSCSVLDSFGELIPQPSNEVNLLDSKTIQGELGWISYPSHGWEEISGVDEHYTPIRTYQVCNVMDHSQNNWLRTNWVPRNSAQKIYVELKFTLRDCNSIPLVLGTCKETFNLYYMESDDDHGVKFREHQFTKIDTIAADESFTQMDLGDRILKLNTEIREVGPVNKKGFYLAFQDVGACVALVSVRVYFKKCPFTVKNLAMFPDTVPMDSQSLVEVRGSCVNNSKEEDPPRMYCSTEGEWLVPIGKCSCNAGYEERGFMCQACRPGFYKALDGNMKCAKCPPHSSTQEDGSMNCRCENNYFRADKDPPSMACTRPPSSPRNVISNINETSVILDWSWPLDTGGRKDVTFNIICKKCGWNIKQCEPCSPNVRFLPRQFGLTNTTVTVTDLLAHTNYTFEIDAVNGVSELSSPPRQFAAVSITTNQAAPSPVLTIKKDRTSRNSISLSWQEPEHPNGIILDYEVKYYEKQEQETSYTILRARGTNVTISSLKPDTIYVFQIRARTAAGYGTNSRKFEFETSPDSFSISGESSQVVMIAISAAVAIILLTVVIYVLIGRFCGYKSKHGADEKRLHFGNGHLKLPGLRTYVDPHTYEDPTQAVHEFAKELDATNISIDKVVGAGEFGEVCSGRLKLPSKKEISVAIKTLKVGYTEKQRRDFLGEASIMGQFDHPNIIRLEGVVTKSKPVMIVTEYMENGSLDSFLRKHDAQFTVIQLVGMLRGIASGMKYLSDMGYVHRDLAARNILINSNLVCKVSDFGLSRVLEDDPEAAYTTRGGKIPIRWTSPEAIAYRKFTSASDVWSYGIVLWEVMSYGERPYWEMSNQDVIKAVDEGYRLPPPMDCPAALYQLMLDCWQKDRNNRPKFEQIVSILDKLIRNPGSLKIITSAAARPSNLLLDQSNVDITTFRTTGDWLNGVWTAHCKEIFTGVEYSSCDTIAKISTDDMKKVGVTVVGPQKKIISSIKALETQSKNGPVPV
As to the kind of experiment: Residual activity of EPHA3 at 10 uM by microplate scintillation counting.

The target of assay [5] is T2, Tyrosine-protein kinase Tec (Homo sapiens) (UniProt P42680).
T2 sequence (whole entry): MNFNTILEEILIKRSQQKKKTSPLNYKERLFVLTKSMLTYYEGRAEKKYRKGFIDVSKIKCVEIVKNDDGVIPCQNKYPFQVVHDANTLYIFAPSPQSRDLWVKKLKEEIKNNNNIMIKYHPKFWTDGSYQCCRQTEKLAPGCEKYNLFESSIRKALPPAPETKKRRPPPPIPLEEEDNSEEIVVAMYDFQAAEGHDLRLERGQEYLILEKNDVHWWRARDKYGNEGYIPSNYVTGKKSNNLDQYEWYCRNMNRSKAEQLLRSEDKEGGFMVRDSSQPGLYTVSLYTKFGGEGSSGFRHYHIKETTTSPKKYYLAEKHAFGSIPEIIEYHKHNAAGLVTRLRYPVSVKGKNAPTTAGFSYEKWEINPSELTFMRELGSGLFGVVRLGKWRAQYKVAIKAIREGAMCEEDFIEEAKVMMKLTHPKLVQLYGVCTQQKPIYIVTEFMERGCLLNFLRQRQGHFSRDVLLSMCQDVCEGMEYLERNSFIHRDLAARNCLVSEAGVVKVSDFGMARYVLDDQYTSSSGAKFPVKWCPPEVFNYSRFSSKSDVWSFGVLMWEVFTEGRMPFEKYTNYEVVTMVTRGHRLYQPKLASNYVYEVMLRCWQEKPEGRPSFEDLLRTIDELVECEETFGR
As to the kind of experiment: Residual activity of TEC at 0.1 uM by microplate scintillation counting.

In assay [6] the target is Ephrin type-A receptor 5 (Homo sapiens) (UniProt P54756). As to the kind of experiment: Residual activity of EPHA5 at 0.1 uM by microplate scintillation counting.
Assay [7] concerns the target Receptor-type tyrosine-protein kinase FLT3 (Homo sapiens) (UniProt P36888). As to the kind of experiment: Residual activity of wild type FLT3 at 0.1 uM by microplate scintillation counting.
Assay [8] has as its target Tyrosine-protein kinase Lck (Homo sapiens) (UniProt P06239). As to the kind of experiment: Residual activity of LCK at 1 uM by microplate scintillation counting.
The target of assay [9] is Casein kinase II subunit alpha' (Homo sapiens) (UniProt P19784). As to the kind of experiment: Residual activity of CK2alpha2 at 10 uM by microplate scintillation counting.
The target in assay [10] is BDNF/NT-3 growth factors receptor (Homo sapiens) (UniProt Q16620). As to the kind of experiment: Residual activity of TRK-B at 10 uM by microplate scintillation counting.
Assay [11] addresses Cyclin-dependent kinase 5/CDK5 activator 1 (Homo sapiens) (UniProt Q00535+Q15078). As to the kind of experiment: Residual activity of CDK5/p25NCK at 0.1 uM by microplate scintillation counting. It counts as protein-complex assay.
Assay [12] deals with Casein kinase I isoform epsilon (Homo sapiens) (UniProt P49674). As to the kind of experiment: Residual activity of CK1epsilon at 1 uM by microplate scintillation counting.
Sequence of Casein kinase I isoform epsilon (Homo sapiens) (P49674 whole entry, looked up, canonical isoform): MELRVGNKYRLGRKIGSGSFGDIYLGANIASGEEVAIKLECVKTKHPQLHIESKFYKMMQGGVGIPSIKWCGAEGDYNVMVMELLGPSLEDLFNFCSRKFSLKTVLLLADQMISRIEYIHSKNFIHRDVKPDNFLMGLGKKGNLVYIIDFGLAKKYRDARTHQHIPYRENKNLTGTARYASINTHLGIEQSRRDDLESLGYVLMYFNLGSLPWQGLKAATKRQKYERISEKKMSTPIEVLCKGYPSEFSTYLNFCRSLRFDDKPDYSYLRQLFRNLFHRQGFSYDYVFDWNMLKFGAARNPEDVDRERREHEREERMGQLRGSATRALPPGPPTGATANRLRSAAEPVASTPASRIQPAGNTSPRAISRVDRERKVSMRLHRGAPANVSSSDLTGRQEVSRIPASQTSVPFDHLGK

Sequence of NT-3 growth factor receptor (Homo sapiens) (Q16288 32-839 limits assumed): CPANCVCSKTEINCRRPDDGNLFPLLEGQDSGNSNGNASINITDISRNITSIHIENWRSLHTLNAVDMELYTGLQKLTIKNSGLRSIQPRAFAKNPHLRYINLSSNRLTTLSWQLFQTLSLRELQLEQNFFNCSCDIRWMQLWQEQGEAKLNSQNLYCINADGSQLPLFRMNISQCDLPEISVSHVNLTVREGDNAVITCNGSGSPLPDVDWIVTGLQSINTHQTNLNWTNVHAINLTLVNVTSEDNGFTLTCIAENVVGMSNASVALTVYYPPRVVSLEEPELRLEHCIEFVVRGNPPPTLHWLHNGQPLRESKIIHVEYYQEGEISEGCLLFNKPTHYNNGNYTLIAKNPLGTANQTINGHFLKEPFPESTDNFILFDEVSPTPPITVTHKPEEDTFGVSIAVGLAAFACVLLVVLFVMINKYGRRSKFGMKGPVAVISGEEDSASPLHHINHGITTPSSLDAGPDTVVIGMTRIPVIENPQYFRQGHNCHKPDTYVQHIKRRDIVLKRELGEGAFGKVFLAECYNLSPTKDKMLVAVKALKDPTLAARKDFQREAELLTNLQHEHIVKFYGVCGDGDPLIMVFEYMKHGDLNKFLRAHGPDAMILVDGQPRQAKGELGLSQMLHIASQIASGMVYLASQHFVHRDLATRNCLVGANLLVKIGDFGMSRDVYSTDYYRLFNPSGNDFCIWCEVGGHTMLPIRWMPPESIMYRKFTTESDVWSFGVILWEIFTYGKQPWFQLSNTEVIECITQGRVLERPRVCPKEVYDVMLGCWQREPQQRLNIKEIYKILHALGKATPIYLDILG
Sequence of Ephrin type-A receptor 5 (Homo sapiens) (P54756 whole entry): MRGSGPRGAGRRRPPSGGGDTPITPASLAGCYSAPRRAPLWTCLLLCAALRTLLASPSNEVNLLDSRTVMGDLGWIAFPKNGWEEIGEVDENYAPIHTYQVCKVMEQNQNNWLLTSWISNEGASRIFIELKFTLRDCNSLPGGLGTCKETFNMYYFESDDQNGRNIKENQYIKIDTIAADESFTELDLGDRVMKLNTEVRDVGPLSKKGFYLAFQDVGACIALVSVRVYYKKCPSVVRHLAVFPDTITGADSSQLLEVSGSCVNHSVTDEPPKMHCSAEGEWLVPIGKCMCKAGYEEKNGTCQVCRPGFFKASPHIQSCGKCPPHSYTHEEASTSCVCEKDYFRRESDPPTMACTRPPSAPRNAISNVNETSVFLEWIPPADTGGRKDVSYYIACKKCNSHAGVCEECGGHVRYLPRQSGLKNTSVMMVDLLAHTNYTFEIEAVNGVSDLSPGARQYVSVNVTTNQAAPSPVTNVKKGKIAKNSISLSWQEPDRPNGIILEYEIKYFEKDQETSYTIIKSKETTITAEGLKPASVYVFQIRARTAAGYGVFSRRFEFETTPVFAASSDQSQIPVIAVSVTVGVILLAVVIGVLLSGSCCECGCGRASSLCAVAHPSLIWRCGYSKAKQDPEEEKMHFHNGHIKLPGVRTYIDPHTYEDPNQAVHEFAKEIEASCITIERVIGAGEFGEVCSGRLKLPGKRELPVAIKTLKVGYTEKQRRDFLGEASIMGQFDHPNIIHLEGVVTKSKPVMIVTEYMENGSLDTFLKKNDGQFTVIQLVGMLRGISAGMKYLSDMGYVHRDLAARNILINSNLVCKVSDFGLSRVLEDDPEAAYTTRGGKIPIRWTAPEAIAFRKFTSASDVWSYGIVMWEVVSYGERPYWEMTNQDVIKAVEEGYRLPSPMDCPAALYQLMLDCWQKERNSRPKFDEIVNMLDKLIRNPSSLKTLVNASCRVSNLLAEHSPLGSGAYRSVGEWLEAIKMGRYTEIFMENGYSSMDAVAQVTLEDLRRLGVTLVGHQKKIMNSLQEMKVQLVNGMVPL
Sequence of Mitogen-activated protein kinase 11 (Homo sapiens) (Q15759 whole entry): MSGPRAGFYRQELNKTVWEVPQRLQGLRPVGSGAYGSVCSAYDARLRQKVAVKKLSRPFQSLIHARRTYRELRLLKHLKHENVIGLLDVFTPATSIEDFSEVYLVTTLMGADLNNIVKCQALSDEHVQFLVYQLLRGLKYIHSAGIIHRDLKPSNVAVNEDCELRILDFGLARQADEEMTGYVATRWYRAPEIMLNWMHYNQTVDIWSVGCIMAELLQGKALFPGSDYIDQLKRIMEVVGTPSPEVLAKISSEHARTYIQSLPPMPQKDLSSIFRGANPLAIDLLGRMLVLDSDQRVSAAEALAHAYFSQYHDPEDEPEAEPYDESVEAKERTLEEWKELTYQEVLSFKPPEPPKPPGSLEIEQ
Sequence of Tyrosine-protein kinase Lck (Homo sapiens) (P06239 2-509 limits assumed): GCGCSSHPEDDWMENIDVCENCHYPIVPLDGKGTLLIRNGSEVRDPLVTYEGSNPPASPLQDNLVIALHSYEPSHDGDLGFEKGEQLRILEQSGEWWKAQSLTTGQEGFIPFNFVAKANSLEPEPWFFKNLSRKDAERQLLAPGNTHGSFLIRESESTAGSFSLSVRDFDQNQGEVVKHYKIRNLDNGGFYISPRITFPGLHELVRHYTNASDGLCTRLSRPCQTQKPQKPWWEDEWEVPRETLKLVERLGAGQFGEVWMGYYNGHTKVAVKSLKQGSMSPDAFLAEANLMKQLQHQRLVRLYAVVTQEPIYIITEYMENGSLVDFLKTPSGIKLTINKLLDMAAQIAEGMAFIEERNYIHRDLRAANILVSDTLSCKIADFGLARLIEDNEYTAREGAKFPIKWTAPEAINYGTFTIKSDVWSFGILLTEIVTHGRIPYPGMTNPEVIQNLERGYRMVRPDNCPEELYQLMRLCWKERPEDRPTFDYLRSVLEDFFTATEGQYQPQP
Sequence of Casein kinase II subunit alpha' (Homo sapiens) (P19784 whole entry, looked up): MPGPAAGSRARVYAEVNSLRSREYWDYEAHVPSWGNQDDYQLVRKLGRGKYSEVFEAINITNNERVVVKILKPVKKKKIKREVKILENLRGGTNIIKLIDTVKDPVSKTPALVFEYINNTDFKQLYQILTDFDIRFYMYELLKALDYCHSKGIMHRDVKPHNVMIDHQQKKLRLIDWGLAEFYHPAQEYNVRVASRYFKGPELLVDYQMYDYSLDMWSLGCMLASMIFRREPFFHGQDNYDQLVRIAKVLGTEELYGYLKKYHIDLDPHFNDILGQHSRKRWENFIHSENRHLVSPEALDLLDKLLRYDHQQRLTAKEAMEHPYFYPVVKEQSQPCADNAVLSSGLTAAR
Sequence of Receptor-type tyrosine-protein kinase FLT3 (Homo sapiens) (P36888 whole entry): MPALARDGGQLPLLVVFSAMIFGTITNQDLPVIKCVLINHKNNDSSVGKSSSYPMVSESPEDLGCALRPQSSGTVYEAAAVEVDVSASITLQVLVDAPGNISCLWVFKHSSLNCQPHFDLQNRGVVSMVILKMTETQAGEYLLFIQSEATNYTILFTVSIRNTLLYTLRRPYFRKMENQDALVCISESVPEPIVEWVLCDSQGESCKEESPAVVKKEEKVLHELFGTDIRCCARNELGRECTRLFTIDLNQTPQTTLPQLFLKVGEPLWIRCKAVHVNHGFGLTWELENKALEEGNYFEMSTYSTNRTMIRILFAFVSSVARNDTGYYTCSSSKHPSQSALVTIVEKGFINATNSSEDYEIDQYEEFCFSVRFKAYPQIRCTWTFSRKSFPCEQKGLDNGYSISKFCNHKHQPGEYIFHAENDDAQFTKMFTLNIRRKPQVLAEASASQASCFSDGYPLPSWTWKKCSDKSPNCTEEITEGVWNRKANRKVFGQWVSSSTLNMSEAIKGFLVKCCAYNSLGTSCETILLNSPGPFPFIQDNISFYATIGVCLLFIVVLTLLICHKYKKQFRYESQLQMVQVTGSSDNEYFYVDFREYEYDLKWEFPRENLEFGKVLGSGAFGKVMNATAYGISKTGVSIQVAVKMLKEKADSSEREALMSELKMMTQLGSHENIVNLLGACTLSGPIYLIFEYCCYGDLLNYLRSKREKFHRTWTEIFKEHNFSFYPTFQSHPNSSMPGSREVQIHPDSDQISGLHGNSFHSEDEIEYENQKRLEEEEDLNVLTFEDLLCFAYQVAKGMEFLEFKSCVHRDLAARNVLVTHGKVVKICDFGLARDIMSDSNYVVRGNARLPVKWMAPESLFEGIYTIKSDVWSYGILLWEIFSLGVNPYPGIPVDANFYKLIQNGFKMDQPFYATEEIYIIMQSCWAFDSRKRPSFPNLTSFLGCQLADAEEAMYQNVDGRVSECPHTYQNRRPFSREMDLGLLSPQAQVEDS
Sequence of Cyclin-dependent kinase 5/CDK5 activator 1 (Homo sapiens) (Q00535 whole entry, canonical isoform): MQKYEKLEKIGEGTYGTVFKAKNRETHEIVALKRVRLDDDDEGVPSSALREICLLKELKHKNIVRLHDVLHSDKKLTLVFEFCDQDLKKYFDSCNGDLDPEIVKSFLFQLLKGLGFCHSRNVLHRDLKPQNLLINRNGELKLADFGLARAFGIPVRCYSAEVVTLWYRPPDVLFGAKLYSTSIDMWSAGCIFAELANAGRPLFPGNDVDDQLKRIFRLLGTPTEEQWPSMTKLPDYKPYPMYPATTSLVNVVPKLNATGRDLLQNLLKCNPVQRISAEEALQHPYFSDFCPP
Sequence of Cyclin-dependent kinase 5/CDK5 activator 1 (Homo sapiens) (Q15078 99-307 partner limits assumed): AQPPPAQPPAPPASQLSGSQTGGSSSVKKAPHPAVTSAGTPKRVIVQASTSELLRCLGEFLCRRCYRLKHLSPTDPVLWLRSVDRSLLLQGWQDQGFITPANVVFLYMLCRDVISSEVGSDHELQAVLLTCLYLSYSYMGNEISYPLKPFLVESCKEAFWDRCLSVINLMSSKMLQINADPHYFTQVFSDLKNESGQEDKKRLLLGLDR

As for `COc1cc2c(Oc3ccc(-c4nc5ccccc5s4)cc3)ncnc2cc1OCCCN1CCCC1`, the residual activity in assay [1] worked out at 166%; in assay [2], 104%; in assay [3] it was 97%; in [4] it was 182%; in [5], 98%; in assay [6] it was 103%. The residual activity in [7] was 95%; in assay [8] it was 64%; in [9], 97%; in assay [10] it was 82%; in [11], 90%; in [12], 107%.
Take `COc1cc2c(Oc3ccc(-c4nc5ccccc5s4)cc3F)ncnc2cc1OCCCN1CCN(C)CC1`: the residual activity in assay [1] was determined as 132%; in assay [2] it was 105%; in [3], 70%; in [4], 143%; in assay [5] it was 96%; in assay [6] it was 97%. Also, the residual activity amounted to 130% in assay [7]; 50% in [8]; 116% in assay [9]; 69% in [10]; 87% in [11]; 101% in [12].
In the case of `COc1cc2c(Oc3ccc(-c4nc5ccccc5s4)cc3)ncnc2cc1OCCCN1CCN(C)CC1`, the residual activity in assay [1] was 188%; in [2], 90%; in assay [3], 66%; in assay [4], 236%; in [5], 105%; in assay [6], 81%. Moreover, the residual activity in assay [7] worked out at 112%; in assay [8], 46%; in assay [9], 98%; in assay [10] it was 114%; in assay [11], 78%; in assay [12] it was 94%.
